Common to all, as to type: cell-based
One assay concerns the target T1, human TLR7 (Homo sapiens, UniProt Q9NYK1).
T1 construct: host or cells: HEK-Blue cells (HEK293-derived reporter line)
T1 sequence (Q9NYK1 27-1049): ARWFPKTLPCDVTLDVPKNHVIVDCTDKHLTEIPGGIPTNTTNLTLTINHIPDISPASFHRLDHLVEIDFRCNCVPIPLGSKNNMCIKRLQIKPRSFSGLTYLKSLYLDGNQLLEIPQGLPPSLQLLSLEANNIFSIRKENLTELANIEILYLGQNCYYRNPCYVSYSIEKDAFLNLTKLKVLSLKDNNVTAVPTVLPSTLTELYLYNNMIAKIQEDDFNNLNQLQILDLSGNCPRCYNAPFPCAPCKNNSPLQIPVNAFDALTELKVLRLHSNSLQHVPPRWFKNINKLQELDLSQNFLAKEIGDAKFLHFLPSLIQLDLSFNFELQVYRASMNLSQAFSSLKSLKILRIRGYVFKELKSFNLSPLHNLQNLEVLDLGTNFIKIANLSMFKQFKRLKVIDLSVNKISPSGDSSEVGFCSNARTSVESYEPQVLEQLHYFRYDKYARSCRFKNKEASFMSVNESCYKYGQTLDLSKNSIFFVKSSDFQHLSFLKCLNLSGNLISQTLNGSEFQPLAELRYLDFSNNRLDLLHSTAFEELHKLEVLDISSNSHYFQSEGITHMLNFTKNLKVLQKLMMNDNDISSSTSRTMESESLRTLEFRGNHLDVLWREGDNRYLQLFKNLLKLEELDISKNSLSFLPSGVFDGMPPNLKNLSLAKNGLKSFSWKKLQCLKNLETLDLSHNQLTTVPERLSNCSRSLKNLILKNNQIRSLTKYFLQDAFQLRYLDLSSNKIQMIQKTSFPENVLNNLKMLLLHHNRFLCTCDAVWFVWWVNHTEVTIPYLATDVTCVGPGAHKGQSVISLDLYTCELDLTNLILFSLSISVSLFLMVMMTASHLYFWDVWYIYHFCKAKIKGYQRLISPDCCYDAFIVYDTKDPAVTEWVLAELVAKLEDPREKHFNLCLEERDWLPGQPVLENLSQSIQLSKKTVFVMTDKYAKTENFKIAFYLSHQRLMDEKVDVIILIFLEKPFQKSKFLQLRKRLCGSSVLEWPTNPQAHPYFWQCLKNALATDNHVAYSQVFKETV
Put plainly: TLR7 inhibition reporter assay (HEK-Blue cells, SEAP reporter, gardiquimod stimulation). As to conditions: HEK-Blue cells overexpressing human TLR7, SEAP reporter, gardiquimod 7.5 μM. In outline: (§1)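 Read-out is SEAP activity in HEK-Blue detection medium after 22 h at 37 °C, converted to percent inhibition against agonist-plus-DMSO and reference-inhibitor controls. Cells saw compound (0.05 nM–50 μM, 30 min, room temperature) before gardiquimod 7.5 μM, R848 15.9 μM or ODN2006 5 nM for TLR7, TLR8 and TLR9, respectively.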

A further assay concerns the target T2, human TLR9 (Homo sapiens, UniProt Q9NR96).
T2 construct: host or cells: HEK-Blue cells (HEK293-derived reporter line)
T2 sequence (Q9NR96 26-1032): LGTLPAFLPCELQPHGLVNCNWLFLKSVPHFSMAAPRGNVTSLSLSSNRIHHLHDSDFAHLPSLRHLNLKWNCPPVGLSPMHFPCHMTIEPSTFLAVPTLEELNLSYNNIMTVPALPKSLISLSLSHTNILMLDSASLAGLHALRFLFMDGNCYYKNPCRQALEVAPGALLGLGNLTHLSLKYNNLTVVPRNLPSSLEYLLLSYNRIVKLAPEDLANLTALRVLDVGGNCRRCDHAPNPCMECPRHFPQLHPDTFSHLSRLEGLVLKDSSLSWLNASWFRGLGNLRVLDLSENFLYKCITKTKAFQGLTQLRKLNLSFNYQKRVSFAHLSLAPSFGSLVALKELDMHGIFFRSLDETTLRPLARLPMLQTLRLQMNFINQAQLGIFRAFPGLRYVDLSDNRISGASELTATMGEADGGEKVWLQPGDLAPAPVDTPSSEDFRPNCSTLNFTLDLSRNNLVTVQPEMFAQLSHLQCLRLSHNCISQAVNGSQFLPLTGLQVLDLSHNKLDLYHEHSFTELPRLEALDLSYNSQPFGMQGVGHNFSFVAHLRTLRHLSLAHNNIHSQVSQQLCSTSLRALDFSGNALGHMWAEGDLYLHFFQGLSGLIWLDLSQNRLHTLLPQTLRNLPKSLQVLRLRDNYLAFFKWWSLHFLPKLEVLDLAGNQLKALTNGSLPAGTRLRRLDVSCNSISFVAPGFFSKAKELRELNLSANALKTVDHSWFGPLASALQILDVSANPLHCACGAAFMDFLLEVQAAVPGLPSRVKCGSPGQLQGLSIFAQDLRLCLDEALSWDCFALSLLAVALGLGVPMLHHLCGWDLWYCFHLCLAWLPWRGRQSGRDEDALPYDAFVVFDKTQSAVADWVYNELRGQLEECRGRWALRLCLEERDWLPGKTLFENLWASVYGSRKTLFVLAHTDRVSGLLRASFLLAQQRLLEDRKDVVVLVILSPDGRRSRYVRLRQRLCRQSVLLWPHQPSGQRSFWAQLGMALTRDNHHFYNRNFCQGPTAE
The assay is described as follows: TLR9 inhibition reporter assay (HEK-Blue cells, SEAP reporter, ODN2006 stimulation). Particulars: HEK-Blue cells overexpressing human TLR9, SEAP reporter, ODN2006 5 nM. An outline of the steps:
as §1

A further assay deals with T3, human TLR8 (Homo sapiens, UniProt Q9NR97).
T3 construct: host or cells: HEK-Blue cells (HEK293-derived reporter line)
T3 sequence (Q9NR97 27-1041): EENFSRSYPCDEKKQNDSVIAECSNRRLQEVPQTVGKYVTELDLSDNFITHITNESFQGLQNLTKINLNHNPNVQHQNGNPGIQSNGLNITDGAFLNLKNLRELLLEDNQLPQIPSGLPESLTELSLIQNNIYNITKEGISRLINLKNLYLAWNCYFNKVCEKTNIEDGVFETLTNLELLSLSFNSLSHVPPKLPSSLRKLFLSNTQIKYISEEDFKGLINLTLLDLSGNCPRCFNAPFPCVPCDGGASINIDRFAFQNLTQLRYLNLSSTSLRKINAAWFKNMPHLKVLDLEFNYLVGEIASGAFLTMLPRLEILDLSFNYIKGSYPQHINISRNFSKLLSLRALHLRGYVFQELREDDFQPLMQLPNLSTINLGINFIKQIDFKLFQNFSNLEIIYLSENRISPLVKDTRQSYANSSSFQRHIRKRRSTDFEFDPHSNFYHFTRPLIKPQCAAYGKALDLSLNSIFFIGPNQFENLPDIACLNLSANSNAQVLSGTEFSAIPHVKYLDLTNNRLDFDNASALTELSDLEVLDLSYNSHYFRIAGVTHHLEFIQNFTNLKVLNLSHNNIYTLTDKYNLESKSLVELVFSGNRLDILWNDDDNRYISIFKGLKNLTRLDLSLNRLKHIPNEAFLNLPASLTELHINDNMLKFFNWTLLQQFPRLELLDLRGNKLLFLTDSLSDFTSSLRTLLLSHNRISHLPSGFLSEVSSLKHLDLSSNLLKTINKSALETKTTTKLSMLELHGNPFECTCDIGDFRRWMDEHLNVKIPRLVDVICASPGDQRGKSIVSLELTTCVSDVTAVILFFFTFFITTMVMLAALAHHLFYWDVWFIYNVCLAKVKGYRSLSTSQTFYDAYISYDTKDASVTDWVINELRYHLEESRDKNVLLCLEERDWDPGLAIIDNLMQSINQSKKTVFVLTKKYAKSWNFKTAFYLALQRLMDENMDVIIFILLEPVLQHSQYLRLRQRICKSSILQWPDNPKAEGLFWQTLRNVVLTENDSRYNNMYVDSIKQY
Put plainly: TLR8 inhibition reporter assay (HEK-Blue cells, SEAP reporter, R848 stimulation). Particulars: HEK-Blue cells overexpressing human TLR8, SEAP reporter, R848 15.9 μM. In outline:
as §1

Turning to `CC(C)c1c(-c2cnc3ccnn3c2)[nH]c2ccc(C3CCN(C4COC4)CC3)cc12` [Example 713, 6-(3-isopropyl-5-(1-(oxetan-3-yl)piperidin-4-yl)-1H-indol-2-yl)pyrazolo[1,5-a]pyrimidine], the IC50 against human TLR7 is over 3130 nM; against human TLR9 it was 1000 to 50000 nM; at human TLR8, over 3130 nM.

Take `CC(C)c1c(-c2ccc(C#N)c3ncccc23)[nH]c2ccc(C3CCN(C4COC4)CC3)cc12` [Example 714, 5-(3-isopropyl-5-(1-(oxetan-3-yl)piperidin-4-yl)-1H-indol-2-yl)quinoline-8-carbonitrile]: the IC50 was under 100 nM on human TLR7, over 50000 nM on human TLR9 and under 100 nM at human TLR8.

Take `Cc1cc2cc(-c3[nH]c4ccc(C5CCN(C6COC6)CC5)cc4c3C(C)C)cc(CC(C)C)n2n1` [Example 716, 7-isobutyl-5-(3-isopropyl-5-(1-(oxetan-3-yl)piperidin-4-yl)-1H-indol-2-yl)-2-methylpyrazolo[1,5-a]pyridine]: the IC50 is over 3130 nM against human TLR7, 1000 to 50000 nM against human TLR9 and over 3130 nM against human TLR8.

As to `Cc1cn2cc(-c3[nH]c4ccc(C5CCN(C6COC6)CC5)cc4c3C(C)C)cc(C)c2n1` [Example 717, 6-(3-isopropyl-5-(1-(oxetan-3-yl)piperidin-4-yl)-1H-indol-2-yl)-2,8-dimethylimidazo[1,2-a]pyridine], the results for the IC50 against human TLR7, on human TLR9 and at human TLR8 were under 100 nM, 100 to 1000 nM and 100 to 1000 nM, respectively.

Regarding `Cc1cc(-c2[nH]c3ccc(C4CCN(C5COC5)CC4)cc3c2C(C)C)nc2scnc12` [Example 718, 5-(3-isopropyl-5-(1-(oxetan-3-yl)piperidin-4-yl)-1H-indol-2-yl)-7-methylthiazolo[5,4-b]pyridine], the values for the IC50 at human TLR7, on human TLR9 and at human TLR8 were under 100 nM, 1000 to 50000 nM and under 100 nM, respectively.

In the case of `Cc1cc(-c2[nH]c3ccc(C4CCN(C5COC5)CC4)cc3c2C(C)C)cn2ccnc12` [Example 719, 6-(3-isopropyl-5-(1-(oxetan-3-yl)piperidin-4-yl)-1H-indol-2-yl)-8-methylimidazo[1,2-a]pyridine], the results for the IC50 against human TLR7, at human TLR9 and against human TLR8 were under 100 nM, 100 to 1000 nM and under 100 nM, respectively.

With `Cc1cc(-c2[nH]c3ccc(C4CCN(C5COC5)CC4)cc3c2C(C)C)cc2ccnn12` [Example 720, 5-(3-isopropyl-5-(1-(oxetan-3-yl)piperidin-4-yl)-1H-indol-2-yl)-7-methylpyrazolo[1,5-a]pyridine], the IC50 is under 100 nM against human TLR7, 1000 to 50000 nM on human TLR9 and under 100 nM against human TLR8.

Take `CC(C)c1c(-c2cnc3ncnn3c2)[nH]c2ccc(C3CCN(C4COC4)CC3)cc12` [Example 721, 6-(3-isopropyl-5-(1-(oxetan-3-yl)piperidin-4-yl)-1H-indol-2-yl)-[1,2,4]triazolo[1,5-a]pyrimidine]: the IC50 against human TLR7 is under 100 nM; at human TLR9, 1000 to 50000 nM; against human TLR8 it was 100 to 1000 nM.

For the compound `COc1cc(-c2[nH]c3ccc(C4CCN(C5COC5)CC4)cc3c2C(C)C)cn2ccnc12` [Example 722, 6-(3-isopropyl-5-(1-(oxetan-3-yl)piperidin-4-yl)-1H-indol-2-yl)-8-methoxyimidazo[1,2-a]pyridine], the concentration for half-maximal inhibition (IC50) was under 100 nM at human TLR7, 1000 to 50000 nM against human TLR9 and under 100 nM on human TLR8.

As to `Cc1cc(-c2[nH]c3ccc(C4CCN(C5COC5)CC4)cc3c2C(C)C)cc2cccnc12` [Example 723, 6-(3-isopropyl-5-(1-(oxetan-3-yl)piperidin-4-yl)-1H-indol-2-yl)-8-methylquinoline], the values for the IC50 against human TLR7, on human TLR9 and against human TLR8 were under 100 nM, 1000 to 50000 nM and 100 to 1000 nM, respectively.

Consider `Cc1cc(-c2[nH]c3ccc(C4CCN(C5COC5)CC4)cc3c2C(C)C)cc2cncn12` [Example 724, 7-(3-isopropyl-5-(1-(oxetan-3-yl)piperidin-4-yl)-1H-indol-2-yl)-5-methylimidazo[1,5-a]pyridine], for which the figures for the IC50 on human TLR7, against human TLR9 and at human TLR8 were 100 to 1000 nM, 1000 to 50000 nM and 100 to 1000 nM, respectively.

Consider `Cc1cc(-c2[nH]c3ccc(C4CCN(C5COC5)CC4)cc3c2C(C)C)c2ccccc2n1` [Example 725, 4-(3-isopropyl-5-(1-(oxetan-3-yl)piperidin-4-yl)-1H-indol-2-yl)-2-methylquinoline], for which the IC50 against human TLR7 was under 100 nM; against human TLR9, 1000 to 50000 nM; against human TLR8 it was 100 to 1000 nM.

For `Cc1cc2cc(-c3[nH]c4ccc(C5CCN(C6COC6)CC5)cc4c3C(C)C)ccn2n1` [Example 726, 5-(3-isopropyl-5-(1-(oxetan-3-yl)piperidin-4-yl)-1H-indol-2-yl)-2-methylpyrazolo[1,5-a]pyridine], the IC50 was 100 to 1000 nM against human TLR7, over 50000 nM on human TLR9 and over 3130 nM on human TLR8.

(Values after patent publication US11739098B2 (BRISTOL-MYERS SQUIBB COMPANY, priority 2017, dated 2023).)
